We go through twelve molecules from publication PMC12155096 (International Journal of Molecular Sciences, 2025).

Read-outs that look alike come from different tables or passages of the source.

The target in data set [1] is T1, human CYP1A2 (Homo sapiens, UniProt P05177).
T1 sequence (P05177 1-516): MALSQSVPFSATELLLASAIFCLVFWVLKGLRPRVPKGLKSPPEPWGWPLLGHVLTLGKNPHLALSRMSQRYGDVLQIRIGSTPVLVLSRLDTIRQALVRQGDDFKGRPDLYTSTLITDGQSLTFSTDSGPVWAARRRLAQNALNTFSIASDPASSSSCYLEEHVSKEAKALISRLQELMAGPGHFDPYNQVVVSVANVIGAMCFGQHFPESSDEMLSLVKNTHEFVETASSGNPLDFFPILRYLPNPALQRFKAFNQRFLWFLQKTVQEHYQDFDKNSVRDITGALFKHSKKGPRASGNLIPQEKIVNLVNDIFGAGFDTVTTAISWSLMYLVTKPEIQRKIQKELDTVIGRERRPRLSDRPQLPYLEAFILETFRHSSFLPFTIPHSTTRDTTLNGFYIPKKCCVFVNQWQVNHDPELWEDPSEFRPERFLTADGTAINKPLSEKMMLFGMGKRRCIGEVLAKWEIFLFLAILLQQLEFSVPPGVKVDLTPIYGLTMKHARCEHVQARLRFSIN
Kind of data set: biochemical. Conditions: CYP1A2 AC50 (half-maximal activity concentration).

The next data set deals with CYP3A4 (Homo sapiens, UniProt P08684).
The target of data set [2] is T2, human CYP2C19 (Homo sapiens, UniProt P33261).
For another data set, the target named is human CYP2D6 (Homo sapiens, UniProt P10635).
The target in data set [3] is T3, human CYP2C9 (Homo sapiens, UniProt P11712). The experiment in a line: biochemical. As to conditions: CYP2C9 AC50 (half-maximal activity concentration).
The target in data set [4] is T1, human CYP1A2.
The target of data set [5] is T3, human CYP2C9.
The target in data set [6] is T2, human CYP2C19. The experiment in a line: biochemical.

T2 sequence (P33261 whole entry): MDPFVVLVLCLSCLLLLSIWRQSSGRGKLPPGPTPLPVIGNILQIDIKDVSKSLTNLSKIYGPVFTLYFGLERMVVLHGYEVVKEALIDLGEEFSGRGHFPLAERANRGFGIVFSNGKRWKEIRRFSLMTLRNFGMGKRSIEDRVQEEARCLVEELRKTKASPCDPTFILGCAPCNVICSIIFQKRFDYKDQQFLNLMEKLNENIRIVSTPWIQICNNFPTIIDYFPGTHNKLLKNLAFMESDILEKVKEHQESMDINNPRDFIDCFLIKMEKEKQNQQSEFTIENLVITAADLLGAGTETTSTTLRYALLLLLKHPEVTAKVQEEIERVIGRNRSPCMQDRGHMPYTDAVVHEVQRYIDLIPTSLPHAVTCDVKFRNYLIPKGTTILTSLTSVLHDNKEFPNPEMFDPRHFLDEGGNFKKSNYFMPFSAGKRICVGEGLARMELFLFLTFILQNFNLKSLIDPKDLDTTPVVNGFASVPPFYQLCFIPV
T3 sequence (P11712 whole entry): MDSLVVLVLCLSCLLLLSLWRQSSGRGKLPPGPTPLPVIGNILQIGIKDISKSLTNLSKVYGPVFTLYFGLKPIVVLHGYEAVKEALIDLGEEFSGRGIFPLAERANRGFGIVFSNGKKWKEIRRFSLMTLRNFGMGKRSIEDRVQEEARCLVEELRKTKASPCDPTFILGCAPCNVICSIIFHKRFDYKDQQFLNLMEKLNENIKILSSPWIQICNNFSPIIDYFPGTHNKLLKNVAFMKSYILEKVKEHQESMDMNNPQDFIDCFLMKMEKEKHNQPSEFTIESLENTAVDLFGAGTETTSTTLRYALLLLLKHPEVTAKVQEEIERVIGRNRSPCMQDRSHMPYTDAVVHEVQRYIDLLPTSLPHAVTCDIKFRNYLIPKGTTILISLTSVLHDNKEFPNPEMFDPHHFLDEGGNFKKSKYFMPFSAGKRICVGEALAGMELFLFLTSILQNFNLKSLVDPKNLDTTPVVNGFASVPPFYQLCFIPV
human CYP2D6, sequence (P10635 whole entry): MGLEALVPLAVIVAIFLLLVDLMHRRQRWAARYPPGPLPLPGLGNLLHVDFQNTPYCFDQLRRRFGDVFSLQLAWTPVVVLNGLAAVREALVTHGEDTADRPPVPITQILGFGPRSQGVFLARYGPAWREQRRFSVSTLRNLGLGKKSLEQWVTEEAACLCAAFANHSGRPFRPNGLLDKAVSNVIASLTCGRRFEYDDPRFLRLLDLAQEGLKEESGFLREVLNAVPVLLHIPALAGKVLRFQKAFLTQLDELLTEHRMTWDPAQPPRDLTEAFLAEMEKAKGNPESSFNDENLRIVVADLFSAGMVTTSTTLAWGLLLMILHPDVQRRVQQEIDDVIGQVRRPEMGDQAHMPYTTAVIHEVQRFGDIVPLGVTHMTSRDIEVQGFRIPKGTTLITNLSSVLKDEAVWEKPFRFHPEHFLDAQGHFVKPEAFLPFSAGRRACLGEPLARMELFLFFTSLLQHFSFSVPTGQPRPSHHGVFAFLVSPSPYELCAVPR
CYP3A4, sequence (P08684 whole entry): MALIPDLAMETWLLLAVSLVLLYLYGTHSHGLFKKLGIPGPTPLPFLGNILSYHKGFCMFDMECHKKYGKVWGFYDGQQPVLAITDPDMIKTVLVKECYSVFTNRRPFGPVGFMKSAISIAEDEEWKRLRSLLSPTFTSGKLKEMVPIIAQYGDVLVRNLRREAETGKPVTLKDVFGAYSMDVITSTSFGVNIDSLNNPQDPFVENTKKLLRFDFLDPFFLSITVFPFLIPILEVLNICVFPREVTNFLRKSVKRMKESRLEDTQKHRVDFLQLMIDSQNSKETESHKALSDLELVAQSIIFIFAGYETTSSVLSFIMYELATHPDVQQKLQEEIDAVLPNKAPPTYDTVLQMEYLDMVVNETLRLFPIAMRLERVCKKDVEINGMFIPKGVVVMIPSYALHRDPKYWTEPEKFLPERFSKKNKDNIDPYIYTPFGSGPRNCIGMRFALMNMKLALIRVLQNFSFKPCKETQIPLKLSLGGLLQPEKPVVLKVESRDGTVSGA

As a reminder, the AC50 is the concentration giving half of the maximal activity seen. A higher AC50 goes with weaker potency. As to `COC(=O)Nc1nc2ccc(C(=O)c3ccccc3)cc2[nH]1` [Mebendazole], the AC50 on human CYP1A2 [1] was determined as 14 µM; at human CYP2C9 [3] it was 3.89 µM. In addition, the “CYP3A4 AC50 (half-maximal activity concentration)” value (“CYP3A4 AC50” below) on CYP3A4 is reported as “Inactive”. For the same molecule, the “CYP2C19 AC50 (half-maximal activity concentration)” value (from here on “CYP2C19 AC50”) at human CYP2C19 [2] is reported as “Inactive”. Moreover, the “CYP2D6 AC50 (half-maximal activity concentration)” value (from here on “CYP2D6 AC50”) at human CYP2D6 is recorded as “Inactive”.
As to `COC(=O)c1ccc(O)cc1` [Methylparaben], the AC50 stood at 20.8 µM at human CYP1A2 [1] and 17.4 µM on human CYP2C9 [3]. Moreover, the “CYP3A4 AC50” value on CYP3A4 is “Inactive”. Further, the “CYP2C19 AC50” value at human CYP2C19 [2] is “Inactive”. Moreover, on human CYP2D6, the “CYP2D6 AC50” value is “Inactive”.
On to `Oc1cc(Cl)c(Cl)cc1Cl` [2,4,5-Trichlorophenol], for which the AC50 on human CYP1A2 [1] stood at 20.8 µM; at human CYP2C9 [3], 22.4 µM. Further, the “CYP3A4 AC50” value on CYP3A4 is reported as “Inactive”. The “CYP2C19 AC50” value at human CYP2C19 [2] is “Inconclusive inhibitor”. The “CYP2D6 AC50” value on human CYP2D6 was “Inactive”.
On to `Cc1cc(=O)oc2cc(O)ccc12` [4-Methylumbelliferone], for which the AC50 on human CYP1A2 [1] was 28.6 µM; at human CYP2C9 [3], 14.6 µM. Further, the “CYP3A4 AC50” value at CYP3A4 was “Inactive”. For the same molecule, on human CYP2C19 [2], the “CYP2C19 AC50” value is recorded as “Inactive”. In addition, the “CYP2D6 AC50” value on human CYP2D6 is “Inactive”.
Regarding `CCNc1nc(Cl)nc(NCC)n1` [Simazine], the figures for the AC50 on human CYP1A2 [1] and at human CYP2C9 [3] were 7.9 µM and 5.09 µM, respectively. The “CYP3A4 AC50” value on CYP3A4 is “Inactive”. Also, the “CYP2C19 AC50” value on human CYP2C19 [2] is listed as “Inactive”. Moreover, the “CYP2D6 AC50” value on human CYP2D6 is recorded as “Inconclusive inhibitor”.
For the molecule `Cc1cc(O)cc(C)c1Cl` [4-Chloro-3,5-dimethylphenol], the AC50 on human CYP1A2 [1] is 14.2 µM; at human CYP2C9 [3], 17.4 µM. For the same molecule, the “CYP3A4 AC50” value at CYP3A4 was “Inactive”. The “CYP2C19 AC50” value at human CYP2C19 [2] is reported as “Inconclusive inhibitor”. The “CYP2D6 AC50” value on human CYP2D6 is on record as “Inactive”.
In the case of `Oc1cc(Cl)ccc1Cl` [2,5-Dichlorophenol], the AC50 on human CYP1A2 [1] is 33.9 µM; on human CYP2C9 [3] it was 32.8 µM. Further, the “CYP3A4 AC50” value at CYP3A4 is “Inactive”. On human CYP2C19 [2], the “CYP2C19 AC50” value is “Inconclusive inhibitor”. Also, the “CYP2D6 AC50” value on human CYP2D6 is “Inactive”.
As for `CC(C)(C)c1cccc(O)c1` [3-tert-Butylphenol], the “CYP3A4 AC50” value at CYP3A4 is reported as “Inactive”. For the same molecule, at human CYP1A2 [4], the “CYP1A2 AC50 (half-maximal activity concentration)” value (“CYP1A2 AC50” below) is “Inconclusive inhibitor”. The “CYP2D6 AC50” value at human CYP2D6 is “Inactive”. Also, the “CYP2C9 AC50 (half-maximal activity concentration)” value on human CYP2C9 [5] is on record as “Inconclusive inhibitor”. This molecule also showed an AC50 at human CYP2C19 [6] of 23.9 µM.
In the case of `C[C@H](CSC(=O)c1ccccc1)C(=O)N1C[C@@H](Sc2ccccc2)C[C@H]1C(=O)O` [Zofenopril], the “CYP3A4 AC50” value at CYP3A4 is listed as “Inactive”. Further, the “CYP1A2 AC50” value at human CYP1A2 [4] is “Inactive”. Also, the “CYP2D6 AC50” value at human CYP2D6 is on record as “Inactive”. Also, the “CYP2C9 AC50 (half-maximal activity concentration)” value on human CYP2C9 [5] is “Inactive”. Moreover, on human CYP2C19 [6] (CYP2C19 AC50 (half-maximal activity concentration)), the activity was half-maximal at 1.71 µM (AC50).
For `O=C(OCCCCCCOC(=O)c1ccccc1)c1ccccc1` [Hexane-1,6-diyl dibenzoate], the concentration at half-maximal activity (AC50) on CYP3A4 was 24 µM; at human CYP1A2 [4], 3.43 µM; on human CYP2C19 [2], 83.2 µM; on human CYP2C9 [5], 10.6 µM. The “CYP2D6 AC50” value on human CYP2D6 is on record as “Inactive”.
As to `CCCCCCCCCCCC(=O)O.OCCN(CCO)CCO` [Triethanolamine Laurate], the AC50 came out at 89.2 µM at CYP3A4, 135 µM on human CYP2C19 [2] and 115 µM on human CYP2C9 [5]. For the same molecule, the “CYP1A2 AC50” value at human CYP1A2 [4] is “Inconclusive inhibitor”. The “CYP2D6 AC50” value on human CYP2D6 was “Inactive”.
In the case of `Cl.Nc1c2ccccc2nc2ccccc12.O`, the “CYP3A4 AC50” value at CYP3A4 is “Inactive”. Besides, the AC50 amounted to 2.13 µM at human CYP1A2 [4], 12.9 µM at human CYP2D6 and 28.8 µM on human CYP2C9 [5]. For the same molecule, the “CYP2C19 AC50” value on human CYP2C19 [2] is “Inconclusive activator”.
